Blank lines part the entries; values can stand above or below the compound they belong to.
What was measured:
Homo sapiens [1] = test: Fold shift in LTD4 dose response curve 24 hr following 450 mg oral dose; assay type: functional
Homo sapiens [2] = species: Homo sapiens; test: Fold shift in LTD4 dose response curve 3-5 hr after 5 days 450 mg bid; assay type: functional
Homo sapiens [3] = species: Homo sapiens; test: Fold shift in LTD4 dose response curve […] after 5 days of 450 mg bid; assay type: functional
Oryctolagus cuniculus = test: Compound was tested in vivo inhibitory activity against LTB4 induced neutropenia in rabbit (intravenous); assay type: functional
Cavia porcellus [4] = species: Cavia porcellus; test: Compound was tested in vitro for inhibitory activity against guinea pig neutrophil aggregation; assay type: functional
Homo sapiens [5] = species: Homo sapiens; test: Compound was tested in vitro for inhibitory activity against human neutrophil aggregation.; assay type: functional
Homo sapiens [6] = species: Homo sapiens; test: Compound was tested in vitro for inhibitory activity against human neutrophil chemotaxis.; assay type: functional
Cavia porcellus [7] = test: Compound was tested in vivo for LTB4 induced bronchoconstriction in guinea pig (2 hr pretreatment).; assay type: functional
Cavia porcellus [8] = test: Compound was tested in vivo inhibitory activity against LTB4 induced bronchoconstriction in guinea pig(orally) (20 hr pretreatment); assay type: functional; conditions: po
Homo sapiens [9] = species: Homo sapiens; test: Compound was tested in vitro inhibitory activity against human neutrophil CD11b/CD18.; assay type: functional
Homo sapiens [10] = species: Homo sapiens; test: Compound was tested in vitro inhibitory activity against LTB4 induced Ca mobilization; assay type: functional
Cavia porcellus [11] = test: Compound was tested in vivo inhibitory activity against LTB4 induced bronchoconstriction (orally); assay type: functional; conditions: po
Cavia porcellus [12] = test: Compound was tested in vivo inhibitory activity against LTB4 induced bronchoconstriction (intravenous); assay type: functional
[13] = biological target: T1, Leukotriene B4 receptor 1 (Homo sapiens, UniProt Q15722); test: Compound was tested for inhibitory activity against human neutrophil LTB4 receptor binding
Mus musculus [14] = test: Compound was tested in vivo inhibitory activity against AA induced ear edema and MPO release (orally).; assay type: functional; conditions: po
Homo sapiens [15] = species: Homo sapiens; test: Compound was tested in vitro inhibitory activity against […] induced aggregation.; assay type: functional, organism-based
Mus musculus [16] = test: Compound was tested in vivo inhibitory activity against AA induced ear edema and MPO release.; assay type: functional
Rattus norvegicus [17] = test: Compound was tested in vivo inhibitory activity against rat neutropenia at 18 h.; assay type: functional
Homo sapiens [18] = species: Homo sapiens; test: Compound was tested in vitro inhibitory activity against […] induced Ca mobilization.; assay type: functional, organism-based
Homo sapiens [19] = species: Homo sapiens; test: Compound was tested in vitro inhibitory activity against […] induced chemotaxis; assay type: functional, organism-based
Homo sapiens [20] = species: Homo sapiens; test: Compound was tested in vitro inhibitory activity against […] induced CD11 up-regulation.; assay type: functional, organism-based
Rattus norvegicus [21] = test: Compound was tested in vivo inhibitory activity against rat neutropenia at 4h.; assay type: functional
Homo sapiens [22] = test: Compound was tested in vivo inhibitory activity against CD11b up-regulation at 4 hours in normal volunteers.; assay type: functional
[23] = biological target: T1, Leukotriene B4 receptor 1; test: Compound was tested for inhibitory activity against Leukotriene B4 receptor binding
[24] = biological target: T2, Cysteinyl leukotriene receptor (Homo sapiens, UniProt Q9Y271+Q9NS75); test: Binding affinity against Cysteinyl leukotriene D4 receptor; assay type: protein assay
T2 sequence (Q9Y271 whole entry): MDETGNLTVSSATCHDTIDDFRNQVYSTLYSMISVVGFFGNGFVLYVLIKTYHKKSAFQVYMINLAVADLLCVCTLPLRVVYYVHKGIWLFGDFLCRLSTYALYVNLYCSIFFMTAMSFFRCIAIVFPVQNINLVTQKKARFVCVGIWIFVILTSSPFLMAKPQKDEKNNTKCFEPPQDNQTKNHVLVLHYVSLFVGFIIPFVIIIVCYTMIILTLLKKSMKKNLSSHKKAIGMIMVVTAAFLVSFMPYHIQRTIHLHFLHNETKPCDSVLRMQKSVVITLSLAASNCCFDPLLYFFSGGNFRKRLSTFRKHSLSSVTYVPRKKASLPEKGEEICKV
T2 sequence (Q9NS75 whole entry): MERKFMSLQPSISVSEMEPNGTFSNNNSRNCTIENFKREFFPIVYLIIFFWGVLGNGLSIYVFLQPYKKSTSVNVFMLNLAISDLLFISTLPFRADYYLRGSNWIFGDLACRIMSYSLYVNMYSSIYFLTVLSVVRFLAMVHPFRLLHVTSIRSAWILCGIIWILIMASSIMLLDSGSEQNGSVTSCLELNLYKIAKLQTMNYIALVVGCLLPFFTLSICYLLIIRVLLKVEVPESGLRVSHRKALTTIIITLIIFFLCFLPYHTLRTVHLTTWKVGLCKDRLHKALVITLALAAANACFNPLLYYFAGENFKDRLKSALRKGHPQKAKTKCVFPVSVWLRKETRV

Homo sapiens [25] = species: Homo sapiens; test: Compound was tested for fold shift in LTD4 dose response curve following 800 microg aerosol dose in mild asthmatics.; assay type: functional
Homo sapiens [26] = species: Homo sapiens; test: Compound was tested for fold shift in LTD4 dose response curve 2 hour following 100 microg aerosol dose in normal subjects.; assay type: functional
Rattus norvegicus [27] = species: Rattus norvegicus; test: Compound was tested for in vitro inhibition using FLAP binding assay
Homo sapiens [28] = species: Homo sapiens; test: Compound were tested for in vitro inhibition against human whole blood.
[29] = Compound was determined in vivo in squirrel monkey antigen bronchospasm; conditions: Saimiri sciureus, Bronchiole
[30] = Compound was tested for in vivo inhibition against antigen bronchospasm.; assay type: functional; conditions: Rattus norvegicus, Bronchiole
RBL-1 = test: Compound were tested for in vitro inhibition against broken RBL-1.; assay type: functional; conditions: Rattus norvegicus
Mus musculus [31] = test: Compound was tested in vivo inhibitory activity against PMA induced ear edema; assay type: functional
Homo sapiens [32] = species: Homo sapiens; test: Compound was tested in vitro inhibitory activity against 12-R-HETE induced Ca mobilization; assay type: functional
[33] = biological target: T1, Leukotriene B4 receptor 1; test: Compound was tested for binding affinity against human neutrophil LTB4 (leukotriene) receptor
Mus musculus [34] = test: Compound was tested in vivo inhibitory activity against AA induced ear edema(orally); assay type: functional; conditions: po
Mus musculus [35] = test: Compound was tested in vivo inhibitory activity against AA induced ear edema (topically); assay type: functional
Homo sapiens [36] = species: Homo sapiens; test: Compound was tested in vitro inhibitory activity against LTB4 induced neutrophil degranulation; assay type: functional
Homo sapiens [37] = species: Homo sapiens; test: Compound was tested in vitro for inhibitory activity in LTB4 induced Ca mobilization.; assay type: functional, organism-based
Homo sapiens [38] = test: Compound was tested for fold shift in LTD4 bronchoconstriction dose response curve following a 400 mg oral dose.; assay type: functional, Lung

T1 sequence (Q15722 whole entry): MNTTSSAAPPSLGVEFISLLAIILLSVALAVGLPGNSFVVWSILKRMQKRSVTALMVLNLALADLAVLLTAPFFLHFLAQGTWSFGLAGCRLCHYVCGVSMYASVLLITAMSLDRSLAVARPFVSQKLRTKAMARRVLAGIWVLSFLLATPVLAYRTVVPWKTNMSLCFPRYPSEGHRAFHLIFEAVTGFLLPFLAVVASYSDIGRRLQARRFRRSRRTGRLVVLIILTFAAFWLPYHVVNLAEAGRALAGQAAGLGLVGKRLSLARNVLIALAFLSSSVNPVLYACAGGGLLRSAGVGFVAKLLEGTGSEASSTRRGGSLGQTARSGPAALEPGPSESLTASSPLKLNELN

IC50 (Homo sapiens [9]): 3.9 nM
IC50 (Homo sapiens [10]): 20 nM
Ki [13]: 25 nM
SMILES: CCCc1c(OCCCOc2cc(O)c(-c3ccc(F)cc3)cc2CC)cccc1Oc1ccccc1C(=O)O [ETALOCIB]
ED50 (Cavia porcellus [11]): 0.4 mg/kg
ED50 (Cavia porcellus [12]): 0.04 mg/kg

IC50 (Homo sapiens [15]): 0.1 nM
IC50 (Homo sapiens [18]): 2 nM
IC50 (Homo sapiens [19]): 2.4 nM
IC50 (Homo sapiens [20]): 0.3 nM
IC50 [23]: 4 nM
SMILES: COc1cc(C(=O)N(C(C)C)C(C)C)ccc1OCCCCCOc1ccc(C(=N)N)cc1 [MOXILUBANT]
ED50 (Mus musculus [14]): 1.8 mg/kg
ED50 (Mus musculus [16]): 1.4 mg/kg
ED50 (Rattus norvegicus [17]): 11 mg/kg
ED50 (Rattus norvegicus [21]): 4 mg/kg
ED100 (Homo sapiens [22]): 300 mg

Ki [24]: 5 nM
SMILES: O=C(O)CCS[C@H](c1ccccc1CCCCCCCCc1ccccc1)[C@@H](O)C(=O)O [POBILUKAST]
Activity (Homo sapiens [25]): 3
Activity (Homo sapiens [26]): 10

IC50 (Rattus norvegicus [27]): 1.6 nM
IC50 (Homo sapiens [28]): 510 nM
IC50 (RBL-1): 6 nM
SMILES: CC(C)(C)Sc1c(CC(C)(C)C(=O)[O-])n(Cc2ccc(Cl)cc2)c2ccc(OCc3ccc4ccccc4n3)cc12.[Na+] [QUIFLAPON SODIUM]
ED50 [29]: 0.3 mg/kg
ED50 [30]: 0.16 mg/kg
T1/2 (phase 1 oral half life): 6 h

IC50 (Homo sapiens [32]): 1.3 nM
Ki [33]: 0.8 nM
IC50 (Homo sapiens [36]): 117 nM
IC50 (Homo sapiens [37]): 6.6 nM
SMILES: O=C(O)/C=C/c1nc(CSc2c(Cl)cccc2Cl)ccc1OCCc1ccccc1 [TICOLUBANT]
ED50 (Mus musculus [31]): 114 µg
ED50 (Mus musculus [34]): 19 mg/kg
ED50 (Mus musculus [35]): 20 µg

More lines, now with the values behind:

SMILES: O=C(Nc1cccc2c(=O)cc(-c3nnn[nH]3)oc12)c1ccc(OCCCCc2ccccc2)cc1
Activity (Homo sapiens [1]): 7
Activity (Homo sapiens [2]): 28
Activity (Homo sapiens [3]): 26

SMILES: COc1ccc(/C=C/CCCCOc2ccc(C(=O)c3cccc(C(=O)O)c3)cc2CCC(=O)O)cc1
ED50 (Oryctolagus cuniculus): 3 mg/kg
IC50 (Cavia porcellus [4]): 74 nM
IC50 (Homo sapiens [5]): 100 nM
IC50 (Homo sapiens [6]): 6 nM

SMILES: CCCc1c(OCCCCCCc2cccc(OCCCCCC(=O)O)c2CCC(=O)O)ccc2c1OCCC2=O
ED50 (Cavia porcellus [7]): < 0.1 mg/kg
ED50 (Cavia porcellus [8]): < 1 mg/kg

SMILES: CCCc1c(OCCCCc2nnn[nH]2)ccc(C(C)=O)c1O [TOMELUKAST]
Activity (Homo sapiens [38]): 4.6

Source: ChEMBL document CHEMBL1129361, “Modulators of leukotriene biosynthesis and receptor activation” (J Med Chem, 1996)
